Source: US8383608B2, “Imidazolidine compounds as androgen receptor modulators” (Dart Therapeutics LLC, priority 2008, dated 2013)
Like-named read-outs stand apart in the source and are kept apart here.

Test system: castrated immature young rats
Assay: Adapted model of Hershberger's test
Type: in vivo, Sprague Dawley rats
Settings: Rattus norvegicus, po, 96 h, ORX control = 0%, SHAM control = 100%, per os daily for 4 days, dose tested 10 mg/kg
Procedure: The selective modulating activity of the androgen receptor is tested in a model of castrated immature young rats. This model, which is widely recognised for evaluating the anabolic effects of androgen compounds on the muscles and on the prostate, has been described by Hershberger et al. 1953 Proc. Soc. Expt. Biol. Med. 83:175.
The method is based on the measurement of the well-known effects of androgens on the growth of the muscles and the accessory male sex organs in animals, and also in men. The consequences of castration appear in the form of a rapid involution and atrophy of the prostate and the seminal vesicles and of the anus-lifting muscle (levator ani). This effect may be completely compensated by an exogeneous administration of androgen, in particular of testosterone. The model is thus used to determine the capacity of the tested molecules to maintain the weight of the accessory sex and muscle organs in immature castrated rats, and therefore their androgenic efficacy.
Immature young Sprague Dawley rats (4 to 5 weeks old) weighing approximately 140-160 g (Charles River, Les Oncins, FRANCE) are distributed randomly in various groups and are kept in an environment at 22±2° C. with an alternating day/night cycle of 12 hours and ad libitum access to food and drink.
On day 0 (seven days before commencement of the first treatment) the rats are weighed individually then anaesthetised with an intraperitoneal dose of Ketamine/xylazine (85/15 mg/kg, approximately 2 ml/kg). Each animal is then placed on a sterile field and the abdomen and the scrotum are disinfected with Betadine and 70% alcohol. In the case of the orchidectomised control animals (ORX), the testicles are removed via an incision in the middle of the scrotum. A sterile suture is then made to ligature the supra-testicular portion of the tissue prior to surgical section of each testicle. The groups of animals to be treated by the tested compounds are operated on in an identical manner. In the case of the intact control animals (SHAM), the testicles are similarly extracted and reintroduced delicately to their original location. The site of surgical intervention is then sutured using sterile suture thread, and the site is disinfected again by application of Betadine. Each animal is then kept under a sterile pad until it awoke, before being returned to its cage. The animals are kept in an environment at 22±2° C. with an alternating day/night cycle of 12 hours and ad libitum access to food and drink. The animals are treated with the molecules to be tested from post-surgery day 7 and until day 10 preceding sacrifice (day 11).
The rats are split into groups and treated daily from day 7 to day 10 under the conditions defined below: • 1. SHAM control group: Vehicle (PEG400/DMSO/water; 79/1/20) administered per os. • 2. ORX control group: Vehicle (PEG400/DMSO/water; 79/1/20) administered per os. • 3. Treated ORX group: The tested compounds are administered individually per os in suspension in the vehicle described above, in a dose of 10 mg/kg.
After treatment for 4 successive days, the animals are decapitated using a guillotine. The levator ani and the ventral prostate are removed and weighed individually. For comparing inter-experimental data, the weight of each organ is standardised and expressed in milligrammes per 100 g of the weight of the animal (W). For each organ, the average of the standardised weights of the ORX control group is fixed by definition at 0% and the average of the standardised weights of the SHAM control group is fixed by definition at 100%. The efficacy of each product is expressed as a percentage and calculated using the following formula: (Wtreated−WORX)/(WSHAM−WORX)×100
A subsequent ANOVA test is used for statistical analysis to identify the differences between groups.

[1] = levator ani weight, read-out: Anabolic activity %
[2] = ventral prostate weight, read-out: Androgenic activity % (Prostate)

| SMILES | response vs control in vivo at 10 mg/kg [1] | response vs control in vivo at 10 mg/kg [2] |
| --- | --- | --- |
| CN1C(=O)N(c2ccc(C#N)c(C(F)(F)F)c2)C(=O)[C@@]1(CO)c1ccccc1 [Example 10, (S)-4-[2,5-Dioxo-4-(hydroxymethyl)-3-methyl-4-phenylimidazolidin-1-yl]-2-trifluoromethylbenzonitrile] | 75 to 100% | 0.5 to 25% |
| CN1C(=O)N(c2ccc(C#N)c(C(F)(F)F)c2)C(=O)C1(CO)c1ccc(Cl)cc1 (stereo not drawn) [Example 7, 4-[4-(4-Chlorophenyl)-2,5-dioxo-4-hydroxymethyl-3-methyl-imidazolidin-1-yl)-2-trifluoromethylbenzonitrile] | 25 to 50% | 0% |
| CCN1C(=O)N(c2ccc(C#N)c(C(F)(F)F)c2)C(=O)C1(CO)c1ccccc1 (stereo not drawn) [Example 12, 4-[2,5-Dioxo-3-ethyl-4-(hydroxymethyl)-4-phenylimidazolidin-1-yl]-2-trifluoromethylbenzonitrile] | 75 to 100% | 50 to 75% |
